Assay results from publication PMC8686256, “DZNep promotes mouse bone defect healing via enhancing both osteogenesis and osteoclastogenesis” (Stem Cell Research & Therapy, 2021).

Assays:
BMMs = test: RANKL-induced osteoclast differentiation, TRAP staining; type: cell-based, mouse
Procedure: To evaluate the role of DZNep on osteoclastogenesis, BMMs were seeded into, in triplicate, a 96-well plate at the density of 8 × 10^3 cells/well with complete α-MEM for one day. Afterward, the culture medium was replaced by the complete α-MEM containing different concentrations of DZNep (control, 3.125, 6.25, 12.5, and 25 nM) and RANKL (50 ng/ml) to stimulate osteoclast differentiation. Cells untreated with DZNep were included as the control group. Moreover, the BMMs treated with or without DZNep for various days were also analyzed. For EZH2 gene knockdown studies, the cells were transfected with virus constructed of different EZH2 short hairpin RNA (shRNA) and negative control shRNA by mixed with polybrene (final concentration of 10ug/ml) for 48 h. The transfection mixture was then replaced by complete α-MEM added with puromycin for 24 h, and BMMs were then seeded into a 96-well plate at the density of 1 × 10^4 cells/well with complete α-MEM. The culture medium was then replaced every 2 days until the matured osteoclasts could be observed in the plate. For Foxc1 inhibition experiment, the cells were separately transfected with negative control siRNA, negative control siRNA with DZNep, and Foxc1 small interfering RNA (siRNA) with DZNep and by mixed with transfection reagent and osteoclast culture medium. The transfection mixture was then replaced every 2 days until the matured osteoclasts could be observed in the plate. The plate was then washed by PBS 1 times and fixed with 4% paraformaldehyde for 15 min. TRAP staining was performed immediately without light at 37 °C for 30 min. An optical microscope (Olympus, Tokyo, Japan) was used to image the photographs, and the TRAP-positive cells with more than three nuclei were considered osteoclasts and were quantified the area and number using the ImageJ software (NIH, Bethesda, MD, USA).

c-FOS and NFATc1 = test: Western blotting of c-FOS and NFATc1 in BMMs; type: cell-based, mouse
Procedure: To explore the variation of the proteins on long-term activated signaling, BMMs were cultured in α-MEM containing M-CSF (30 ng/ml) and RANKL (50 ng/ml) at a density of 2 × 10^5 cells/well on 6-well plates. After 24 h, the BMMs were treated with or without 25 nM DZNep for 0, 1, 3, and 5 days, and total protein was obtained, respectively, on these specific time points. To determine the effect of DZNep on the protein of short-time activated phosphorylated, RAW264.7 cells were cultured in α-MEM at a density of 5 × 10^5 cells/well on 6-well plates. One day later, the cells were treated with the serum-free α-MEM in the presence or absence of DZNEP for 3 hand then stimulated with 50 ng/mL RANKL for 0, 10, 20, 30, and 60 min. To determine the efficiency of EZH2 shRna, BMMs were cultured in α-MEM at a density of 5 × 10^5 cells/well on 6-well plates. One day later, the cells were treated with negative control shRNA or different EZH2 shRNA for 2 days. To determine the efficiency of Foxc1 siRna, BMMs were cultured in α-MEM at a density of 5 × 10^5 cells/well on 6-well plates. […] After TBST wash for 3 times, the secondary fluorescence antibodies were incubated without light for 1 h at room temperature and the reactivity was visualized by using Odyssey V3.0 image scanning (Li-COR. Inc., Lincoln, NE, USA). […]

[1] = RANKL, M-CSF, DZNep ≤25 nM, 5 days, vs control

Question: For `Nc1nccc2c1ncn2C1C=C(CO)C(O)C1O` (centres unmarked) [DZNep, 3-Deazaneplanocin], which “number of osteoclasts, treatment at specific time points” value (BMMs; 25 nM, day 3–5, vs control) is on record?
Answer: increased the number of osteoclasts at the middle stage

Question: And the “number of mature osteoclast nuclei” value (BMMs; [1])?
Answer: increased in a dose-dependent manner significantly

Question: What about the “number of mature osteoclasts” value (BMMs; [1]) of the same compound?
Answer: increased the number of mature osteoclasts in a DZNep dose-dependent manner

Question: And the “expression of c-FOS and NFATc1 (western blot)” value (c-FOS and NFATc1; 25 nM, 0, 1, 3, 5 days, vs control)?
Answer: further enhanced

Question: And the “c-FOS and NFATc1 expression (western blot), various concentrations” value (c-FOS and NFATc1; RANKL, 5 days)?
Answer: upregulated
